Source: US11253457B2, “Exopolysaccharide-protein complex, a method of preparing said complex and uses thereof” (INSTITUT UNIV. DE CIÈNCIA I TECNOLOGIA, S.A., priority 2016, dated 2022)

Tests used:
[1] = system: IL-10; test: Real-time PCR of IL-10 mRNA in THP-1 cells stressed with LPS; type: cell-based; conditions: human monocyte-like cells (THP-1), LPS 10 μg/ml alone
Procedure: (§1) The capacity of EPS to modulate the inflammatory response was evaluated in vitro in human primary keratinocytes (HEK) and human monocyte-like cells (THP-1) stressed with LPS (lipopolysaccharide). The cells were pretreated with different concentrations of exopolysaccharide-protein complex (1, 0.1 and 0.01 mg/ml) for 24 h and with 10 μg/ml of LPS for 24 h. Controls of HEK and THP-1 cells treated only with the different concentrations of exopolysaccharide-protein complex (1.0, 0.1 and 0.01 mg/ml) were also prepared.
(§2) Expression of mRNA for the cytokines IL-6, IL-8, IL-10 and TNF-α was analyzed by real-time PCR and the NF-κB activation was measured using a luciferase reporter gene assay.
(§3) Real-time PCR: Total RNA was extracted with the RNA Isolation Kit (ThermoFischer Scientific) according to the manufacturer's recommendations. 1 ng of RNA was reverse transcribed into complementary DNA (cDNA) using Superscript One-Step RT-PCR kit with platinum Taq according to the instructions (Invitrogen). Quantification rests on the measure of threshold cycles (CT), which are measured at the beginning of the exponential phase of the reaction and on the normalization of the internal standard curve obtained with the reference gene.

[2] = system: TNF-α; test: Real-time PCR of TNF-α mRNA in keratinocytes stressed with LPS; type: cell-based, human; conditions: LPS 10 μg/ml alone
Procedure: as §1, §2, §3

[3] = system: TNF-α; test: Real-time PCR of TNF-α mRNA in THP-1 cells stressed with LPS; type: cell-based; conditions: human monocyte-like cells (THP-1), LPS 10 μg/ml alone
Procedure: as §1, §2, §3

[4] = system: IL-6; test: Real-time PCR of IL-6 mRNA in keratinocytes stressed with LPS; type: cell-based, human; conditions: LPS 10 μg/ml alone
Procedure: as §1, §2, §3

[5] = system: IL-10; test: Real-time PCR of IL-10 mRNA in keratinocytes stressed with LPS; type: cell-based, human; conditions: LPS 10 μg/ml alone
Procedure: as §1, §2, §3

[6] = system: IL-6; test: Real-time PCR of IL-6 mRNA in THP-1 cells stressed with LPS; type: cell-based; conditions: human monocyte-like cells (THP-1), LPS 10 μg/ml alone
Procedure: as §1, §2, §3

[7] = system: IL-8; test: Real-time PCR of IL-8 mRNA in keratinocytes stressed with LPS; type: cell-based, human; conditions: LPS 10 μg/ml alone
Procedure: as §1, §2, §3

[8] = system: IL-8; test: Real-time PCR of IL-8 mRNA in THP-1 cells stressed with LPS; type: cell-based; conditions: human monocyte-like cells (THP-1), LPS 10 μg/ml alone
Procedure: as §1, §2, §3

[9] = system: human hepatocellular carcinoma cell line (HepG2); test: MTT tumor cell proliferation assay (HepG2); type: cell-based; conditions: HepG2, positive control
Procedure: The MTT assay was used for measuring the proliferation of the tumor cells. Briefly, human hepatocellular carcinoma cell line (HepG2), human breast adenocarcinoma cell line (MCF7), human lung adenocarcinoma cell line (H1975) and Human melanoma cell line (A375) were seeded at a density of 4×10^4 cells/mL in a volume of 0.1 mL in 96-well plates, respectively. After 24 h, different concentrations of EPCx (1.0, 0.1 and 0.01 mg/ml) were dissolved in the medium was added to each well and incubated for 48 h at 37° C. in a CO2 incubator. 5-Fu (5-fluorouracil) was used as the positive control. After the incubation, 20 μL of MTT solution (5 mg/mL) were added into each well and followed by further incubation for 4-5 h. The culture media were then removed and 100 μL of DMSO was added to each well for 1 h. Absorbance at 570 nm was detected by microplate ELISA reader.

| Compound | Gene expression (mRNA, real-time PCR) IL-10 [1] | Gene expression (mRNA, real-time PCR) TNF-α [2] | Gene expression (mRNA, real-time PCR) TNF-α [3] | Gene expression (mRNA, real-time PCR) IL-6 [4] | Gene expression (mRNA, real-time PCR) IL-10 [5] | Gene expression (mRNA, real-time PCR) IL-6 [6] | Gene expression (mRNA, real-time PCR) IL-8 [7] | Gene expression (mRNA, real-time PCR) IL-8 [8] | IC50 [9] [µM] |
| --- | --- | --- | --- | --- | --- | --- | --- | --- | --- |
| lipopolysaccharide [LPS] | 5 | 67 | 67 | 62 | 7 | 73 | 59 | 82 |  |
| O=c1[nH]cc(F)c(=O)[nH]1 [5-fluorouracil] |  |  |  |  |  |  |  |  | 10 |
